Assays:
[1] = target: T1, rhuMIF (Homo sapiens, UniProt P14174); assay: Depletion of human MIF from supernatant of cultured HepG2 cells, sandwich ELISA; format: cell-based; settings: 100 nM huMIF, after 24 hours
T1 sequence (P14174 2-115 limits assumed): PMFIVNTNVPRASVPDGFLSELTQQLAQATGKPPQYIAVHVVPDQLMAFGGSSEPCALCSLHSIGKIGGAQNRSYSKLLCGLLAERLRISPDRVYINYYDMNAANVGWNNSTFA
Procedure: In an experiment the results of which are presented in FIG. 3, bifunctional molecules were able to deplete human MIF from the supernatant of culture HepG2 cells. Briefly, human MIF (100 nM) was added to cell culture media in the presence of negative control MIF inhibitor 3w as well as bifunctional molecules MIF-NVS-PEGn-GN3, MIF-GN3, MIF-PEGn-Gn3, MIF-AcF3-1, MIF-AcF3-2, and MIF-AcF3-3. All molecules utilized a known MIF-binding ligand. Experiments were performed in 96 well plates (approximate surface area 0.3 cm^2). HepG2 cells were grown to 90% confluency in RPMI media, then washed with PBS (2×) and treated with serum-free media (optimem+0.1% BSA, +Pen/Strep) containing 100 nM huMIF (Cayman Chemical) and compounds (when applicable). Compounds were diluted from 1 mM stock solutions in DMSO. After 24 hours, a sample of the supernatant (2 uL) was collected, diluted 1:100, and analyzed for MIF content by sandwich ELISA (and incubated for 24 hours in the presence or absence of compound). Remaining MIF levels were determined by sandwich ELISA (biolegend monoclonal anti-MIF and biotinylated anti-MIF antibodies). Data represents the average of at least 3 biological replicates, and error bars represent a standard deviation. After 24 hours, up to 95.3% of the MIF had been depleted from cell culture media (in the case of MIF-AcF3-3).

[2] = target: T1, rhuMIF; assay: Depletion of injected human MIF from mice, serum sandwich ELISA; format: in vivo; settings: nude mice injected with 5 μg recombinant human MIF
Procedure: Human MIF has a half-life of approximately 40 minutes in mice. In this experiment, human recombinant MIF (Cayman chemical) was co-injected into mice with an anti-DNP IgG, which was used as an injection positive control. In particular, nude mice were injected with 5 μg recombinant human MIF and 200 μg anti-DNP IgG as an injection control (FIG. 4). MIF-GN3 was then injected at the concentration shown and blood drawn every twenty minutes over the course of two hours. Serum was diluted 1:100 and analyzed for MIF content by sandwich ELISA (biolegend monoclonal anti-MIF and biotinylated anti-MIF antibodies).

[3] = target: T1, rhuMIF; assay: Trafficking of MIF internalized by HepG2 cells to lysosomes, immunofluorescence; format: cell-based; set-up: purchased Cayman Chemical; settings: 100 nM rhuMIF, 200 nM compound, 12 hours
Procedure: In this experiment, cells were incubated with rhuMIF (Cayman) at a concentration of 100 nM with 200 nM MIF-GN3.

[4] = test system: PC3 human prostate cancer cells; assay: Mouse model of prostate cancer, tumor growth; format: in vivo; settings: nude mice engrafted with PC3 cells, treatment initiated immediately
Text: In this experiment, nude mice were engrafted with PC3 human prostate cancer cells. Treatment was then initiated immediately with either a non-bifunctional MIF inhibitor (3w), an anti-MIF antibody, or MIF-GN3.

Compound | MIF depleted from cell culture media [1] [%] | serum huMIF levels ([2]; blood drawn over two hours, PBS control up to 150 ng/ml) | decrease in huMIF levels ([2]; versus PBS) | trafficking of internalized MIF to lysosomes [3] | tumor growth [4]
O=C(CCOCC(COCCC(=O)NCCOCCOCCOCCOC[C@@]12CO[C@@H](O1)[C@H](NC(=O)C(F)(F)F)[C@@H](O)[C@H]2O)(COCCC(=O)NCCOCCOCCOCCOC[C@@]12CO[C@@H](O1)[C@H](NC(=O)C(F)(F)F)[C@@H](O)[C@H]2O)NC(=O)CCCOc1ccc2nc(-c3cn(-c4ccc(O)c(F)c4)nn3)ccc2c1)NCCOCCOCCOCCOC[C@@]12CO[C@@H](O1)[C@H](NC(=O)C(F)(F)F)[C@@H](O)[C@H]2O [MIF-AcF3-3] | 95.3 |  |  |  | 
CC(=O)N[C@H]1[C@H](OCCOCCOCCNC(=O)CCOCC(COCCC(=O)NCCOCCOCCO[C@@H]2O[C@H](CO)[C@H](O)[C@H](O)[C@H]2NC(C)=O)(COCCC(=O)NCCOCCOCCO[C@@H]2O[C@H](CO)[C@H](O)[C@H](O)[C@H]2NC(C)=O)NC(=O)CNC(=O)CCCOc2ccc3nc(-c4cn(-c5ccc(O)c(F)c5)nn4)ccc3c2)O[C@H](CO)[C@H](O)[C@@H]1O [MIF-GN3] |  | up to 20 ng/ml | substantial decrease in huMIF levels | evidencing internalization in lysosomes | showed a slowing of tumor growth

Reference: US12083181B2, “Bi-functional molecules to degrade circulating proteins” (Yale University, priority 2018, dated 2024)
